Assay [1] deals with T1, Nucleophosmin (NPM) (Homo sapiens, UniProt P06748).
T1 construct: gene NPM1; full-length NPM (SPR); C-terminal domain residues 243–294 (DSF)
The assay is described as follows: SPR steady state ([…] model, S0.[…] ≈ KD); DSF ΔTm […] °C at […] with C-terminal domain; Trp fluorescence unfolding. The class given is binding.

For assay [2], the target named is T1, Nucleophosmin (NPM). The assay is described as follows: SPR steady state ([…] model, S0.[…] ≈ KD); DSF ΔTm […] °C at […] with C-terminal domain. The class given is binding.

T1 sequence (P06748 whole entry, the tested form may be a part): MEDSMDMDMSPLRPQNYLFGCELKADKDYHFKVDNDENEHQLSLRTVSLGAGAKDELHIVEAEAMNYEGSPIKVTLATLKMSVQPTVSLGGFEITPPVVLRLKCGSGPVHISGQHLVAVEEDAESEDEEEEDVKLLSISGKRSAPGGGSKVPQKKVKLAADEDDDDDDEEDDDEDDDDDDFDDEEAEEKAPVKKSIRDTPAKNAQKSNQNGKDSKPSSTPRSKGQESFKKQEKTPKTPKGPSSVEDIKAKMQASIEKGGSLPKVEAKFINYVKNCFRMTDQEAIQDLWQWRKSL

As for `CC1=C(C(=O)Nc2ccc(Br)cn2)C(c2ccccn2)C2=C(CC(c3ccccc3)CC2=O)N1` (centres unmarked) [C1], on Nucleophosmin (NPM) [1], binding was characterised by a dissociation constant (Kd) of 68 ± 13 µM.
`Cc1ccc(-n2c(SCC(=O)Nc3ccc4c(c3)OCCO4)nc3ccccc3c2=O)cc1` [C3]: binding at Nucleophosmin (NPM) [2] was characterised by a dissociation constant (Kd) of 102 ± 23 µM.

The values are drawn from article PMC5655693, “Conformational stabilization as a strategy to prevent nucleophosmin mislocalization in leukemia” (Scientific Reports, 2017).
